We go through one compound from publication PMC12035805, “A Water-Soluble Aggregation-Induced Emission Photosensitizer with Intrinsic Antibacterial Activity as an Antiplanktonic and Antibiofilm Therapeutic Agent” (Journal of Medicinal Chemistry, 2025).

Bounds are passed on as bounds.

Data set [1] is described as follows: Log P, 1-octanol/water partition. It is filed as physicochemical. The note with it: 1-octanol/water (1:1). The procedure:
The log P values of TPA compounds were obtained according to previously reported methods.[66] 1-octanol was first presaturated with water. Equal volume and concentration of TPA-NC-1, TPA-0, and TPA-1 were added to a 1-octanol/water (1:1) mixture and vortexed for 1 min. The mixture was then centrifuged for 5 min at 13,500 rpm. After that, the absorptions of the compound in the 1-octanol and water phases were measured. The concentrations of the compound in both phases were calculated by using the absorption calibration curve of the corresponding compound. Log P = log (concentration of the compound in 1-octanol/concentration of the compound in water).

Data set [2] deals with S. aureus. In words: Time-kill kinetics against S. aureus. It is filed as cell-based, Staphylococcus aureus. The conditions noted are these: 2 × MIC (6.25 μM), dark. On the procedure:
Similar to the MIC assay, the overnight culture of S. aureus incubated under darkness was diluted in fresh MHB and grown to the mid log phase. The S. aureus was then diluted to 1 × 10^6 CFU/mL in cation-adjusted MHB. Three mL of diluted S. aureus was transferred into a 15 mL culture tube. 2 × MIC and 4 × MIC of TPA-1 was added into the bacterial culture and incubated under darkness for 24 h. 2 × MIC of vancomycin and PBS were taken as the positive and negative controls, respectively. At time 0, 0.5, 1, 2, 4, 6, 8, and 24 h, 20 μL of the bacteria culture was taken out. The bacteria were serially diluted, and the number of viable bacteria was recorded using the plate counting method. The experiment was performed in triplicate.

In data set [3] the test system is S. aureus mature biofilm. In words: S. aureus mature biofilm eradication assay in the dark. It is filed as cell-based, Staphylococcus aureus. The conditions noted are these: 24 h. On the procedure: For biofilm eradication assay, overnight culture of S. aureus in TSB under darkness was diluted to 1 × 10^5 CFU/mL in TSB (with 1% glucose). 100 μL of the diluted culture was transferred to each well of a 96-well plate. The plate was kept at 37 °C for 24 h under darkness to form mature biofilms. The medium was removed, and the biofilms were washed with 200 μL of PBS (3 times). 100 μL of the premixed TPA-1 solutions in TSB (with 1% glucose) were added to the wells. The plate was further incubated for 24 h under darkness and subjected to the crystal violet assay as stated in the biofilm inhibition assay. The biofilm survival rate (%) was calculated as (ODTPA-1 – ODblank)/(ODmedium – ODblank) × 100% where ODTPA-1, ODmedium, and ODblank were the absorbances of the wells with bacteria treated TPA-1, with bacteria without treatment and with medium only, respectively. The experiment was performed in triplicate.

Data set [4] concerns planktonic S. aureus. In words: Photodynamic eradication of planktonic bacteria. It is filed as cell-based, Staphylococcus aureus. The note with it: 2 μM, 600 nm (60 mW/cm^2). The procedure: For planktonic bacteria, an overnight culture of S. aureus or P. aeruginosa was diluted 100 times in TSB and grown to OD = 1. The bacteria cultures were then diluted to […] in PBS. TPA-1 (2 μM) was added to the diluted cultures and incubated under darkness for 20 min at 30 °C. Bacterial cultures of 200 μL were transferred to the wells of a 96-well plate. The plate was irradiated by 600 nm light (60 mW/cm^2) for 30 and 45 min. Then, the bacterial cultures were serially diluted, and the number of viable bacteria was counted using the plate counting method.

The subject of data set [5] is P. aeruginosa biofilm. Briefly: Photodynamic eradication of biofilm bacteria. It is filed as cell-based, Pseudomonas aeruginosa. The note with it: light irradiation at 600 nm for 45 min. The procedure: For biofilm bacteria, overnight culture of S. aureus or P. aeruginosa was diluted to 1 × 10^5 CFU/mL in TSB (with 1% glucose). Portion of 100 μL of the diluted bacteria culture was added to the wells of a 96-well plate. The plate was incubated under darkness for 24 h at 37 °C. Then, the planktonic bacterial suspensions were removed from the wells. The biofilms were washed with PBS (3 times) to remove any remaining planktonic bacteria. Different concentrations of TPA-1 were dissolved in PBS. TPA-1 solution was added to the biofilms (120 μL for S.aureus, 150 μL for P.aeruginosa). After 20 min of incubation under darkness at 30 °C, the biofilms were kept in the dark or irradiated by 600 nm light (60 mW/cm^2) for 15, 30, and 45 min. After that, the TPA-1 solution was replaced by 120 μL of PBS. The biofilm was then suspended in PBS by scratching, followed by sonication (5 min, ≤42 kHz) and vortex (5 min, 950 rpm). The number of viable bacteria was determined by the plate counting method. All experiments were carried out in triplicate.

Data set [6] in a line: Light toxicity on HFF-1 cells (MTT after PDT). Format: cell-based. The conditions noted are these: human, 600 nm light irradiation for 45 min. On the procedure:
HFF-1 cells were seeded in a 96-well plate with a density of 10,000 cells/well for 12 h at 37 °C in darkness. Different concentrations of TPA-1 were added to the cell culture medium and incubated for 20 min at 37 °C in darkness. The cells were then incubated in the dark or irradiated by 600 nm light for 45 min. The cell viability was then evaluated using the MTT assay, which was described in the cytotoxicity assay.

The subject of data set [7] is P. aeruginosa (ATCC 27853). In words: Wound infection mouse model, P. aeruginosa biofilm. It is filed as in vivo. The note with it: mice, topical 90 μM, 600 nm 15 min, every 24 h for 4 days (TPA-1 + L). On the procedure:
All in vivo experiments were approved by the Department of Science and Technology of Zhejiang Province (SYXK(Zhejiang)2021-0043). Female BALB/c mice (10–12 weeks old) were kept in 12 h light and 12 h dark cycle with access to free food and water for 7 days before and throughout the experiment. The backs of the mice were shaved and disinfected with iodine. A full-thickness circular wound (7 mm in diameter) was then created at the back of the mice. The mice were allowed to recover for 24 h after surgery to prevent sepsis.[65] Ten μL of 1× 10^8 CFU/mL MRSA (ATCC 43300) or P. aeruginosa (ATCC 27853) in saline was added to the wound. The wound was covered with an adhesive dressing for 24 h of infection. Next, the mice were randomly divided into four groups: (1) 50 μL TPA-1 (90 μM) with 600 nm light irradiation (60 mW/cm^2) for 15 min, (2) 50 μL TPA-1 (90 μM) in dark, (3) 50 μL saline with 600 nm light irradiation (60 mW/cm^2) for 15 min, and (4) 50 μL saline in dark. For light irradiation groups, TPA-1 and saline were incubated on the wound for 10 min before irradiation. The treatment was sustained for 4 days. The wound size and body weight of the mice were recorded every day. On day 6, the mice were euthanatized, and the wound tissue was collected. […] The other half of the tissue was homogenized, and the number of viable bacteria was measured by the plate counting method.

`C#CCC[n+]1c(/C=C/c2ccc(-c3ccc(N(c4ccc(OCCC[N+](C)(C)C)cc4)c4ccc(OCCC[N+](C)(C)C)cc4)cc3)s2)sc2ccccc21.[Br-].[Br-].[Br-]` [TPA-1]: the log partition coefficient (logP) – broadly, the decadic logarithm of the partition coefficient of the neutral form, usually between octanol and water – in data set [1] is -1.6. In addition, in data set [2], the “time to completely eradicate S. aureus” value is recorded as not above 2 h. Moreover, the “eradication of mature S. aureus biofilms without light” value in data set [3] is given as “only limited ability to eradicate mature biofilms”. Also, in data set [4] (30 min), the “planktonic S. aureus eradicated” value was 99.2% ± 0.7% and the “planktonic S. aureus log CFU/mL reduction” value was 2.2 ± 0.4 log CFU/mL. For the same compound, in data set [4] (45 min), the “planktonic S. aureus eradicated” value is on record as more than 99.99% and the “planktonic S. aureus log CFU/mL reduction” value was more than 5 log CFU/mL. Moreover, in data set [5], the “P. aeruginosa biofilm log CFU/mL reduction” value is on record as 2.6 ± 0.2 log CFU/mL and the “P. aeruginosa in the biofilm eradicated” value is given as 99.8% ± 0.1%. In data set [6], the viability (as a rule, a read-out of living cells in per cent, often relative to untreated cells) at 45 min, 40 µM was more than 90%. For the same compound, in data set [7], the “P. aeruginosa eradicated in infected tissues” value was 96% ± 4% and the “P. aeruginosa log (CFU/mg tissue) reduction” value is 1.4 ± 0.4 log (CFU/mg tissue).
